Consider eight molecules from patent US12594264B2, “Modulators of alpha-synuclein proteolysis and associated methods of use” (Arvinas Operations, Inc., priority 2018, dated 2026).

This test deals with T1, sarkosyl insoluble (SI) α-synuclein (human α-SYN A53T) (Homo sapiens, UniProt P37840, A53T).
T1 construct: expressed in transfected cells
The test is described as follows: MJFF-14-6-4-2 conformation specific ELISA of sarkosyl insoluble α-synuclein after compound treatment. In kind it is cell-based. The following applies: 1 μM compound; protein remaining relative to DMSO control; PFF induced A53T α-synuclein overexpressing HEK293 cells; read-out: Protein Degradation at 1 μM. The procedure: Targeted degradation of sarkosyl insoluble (SI) α-synuclein via exemplary bifunctional compounds was assessed by MJFF-14-6-4-2 conformation specific ELISA following treatment of PFF induced A53T α-synuclein overexpressing HEK293 cells with 1 μM exemplary compound compared to DMSO vehicle control. Degradation activity of the exemplary compounds of Table 2 is expressed as % DMSO control. […] However, the effect of bifunctional targeting degraders, shown in FIG. 5, required the intact E3 ligase binding domain.
Trex293 (doxycycline inducible) cells stably expressing human α-SYN A53T (monoclonal) were plated in poly-d-lysine coated T-75 tissue culture flasks (4.5×10e6 cells/flask) in DMEM with 10% tet-free FBS, 10 μg/ml blasticidin, and 400 μg/ml zeocin. After an overnight incubation, the cells were induced to express α-SYN by treatment with 1 μg/ml doxycycline (Dox) and exemplary bifunctional compound. After a 24 hour dox induction, the medium on the cells was changed to Opti-MEM followed by treatment with α-SYN pre-formed fibrils** (PFFs)(5 μg/flask) pre-complexed with Lipofectamine 2000 transfection reagent for 4 hours. After PFF treatment, the medium was changed back to DMEM with the supplements described above and exemplary bifunctional compound for 48 hours.
Cell pellets were harvested from each flask using 0.25% trypsin followed by spinning at 500×g for 5 minutes. Each pellet was resuspended in 1 ml cold buffer H [Buffer H-10 mM Tris, 1 mM EGTA, 0.8M NaCl, 10% sucrose, pH7.4 containing 1× protease and phosphatase inhibitors] containing protease and phosphatase inhibitors. The resuspended pellets were incubated on ice for 20 minutes followed by centrifugation at 27,200×g for 20 minutes at 4° C. The supernatants were adjusted to 1% sarkosyl (Sigma) and 1% 2-mercaptoethanol followed by incubation for 1 hour at 37° C. on an orbital shaker set to 400 rpm. The samples were then spun at 150,000×g for 35 minutes at room temperature. The supernatant was removed and saved as the soluble fraction and the insoluble pellet was resuspended in 25 μl tris-buffered saline (TBS). Protein concentrations were determined by NanoDrop, and normalized protein concentrations were analyzed by WES capillary electrophoresis as well as an α-SYN oligomer ELISA.
Recombinant human α-SYN was purchased from Proteos. 1 mg aliquots were supplied at 10 mg/ml in 10 mM Tris, 50 mM NaCl, pH7.6. The aliquot was thawed on ice followed by centrifugation at 4° C. for 10 minutes at 12,000×g to pellet any insoluble material. The supernatant was removed and quantitated on a NanoDrop (A280) using Beer's Law (ε=5960 M-1 cm-1). The concentration was adjusted to 5 mg/ml in PBS followed by vortexing for 3 seconds to mix contents. The mixture was incubated in an orbital shaker set to 37° C. at 1,000 rpm for 7 days followed by aliquoting into individual use vials. Prior to addition to cells, an aliquot was thawed at room temperature, then diluted to 1 mg/ml with phosphate-buffered saline (PBS) followed by sonication for 1 minute with a probe sonicator (output 1; 90% duty cycle) in a chem hood.
Coming Costar high bind black well plates were coated with MJFR 14-6-4-2 (Abcam) at 1 μg/ml for 1 hour at 37° C. followed by washing with 1×TBS+0.1% tween-20 (TBS-T) then blocking with 3% bovine serum albumin (BSA) in TBS. After re-washing, samples were added after dilution in diluent (1% BSA/TBS-T). Non-sonicated PFF was used to generate a standard curve. The plates were incubated with sample overnight at 4° C. with shaking. The following day alkaline phosphatase (AP) conjugated MJFR 14-6-4-2 was added to the plate without washing followed by incubation at room temperature for 1 hour with shaking or rocking. The plates were then re-washed and substrate (CDP star alkaline phosphatase detection reagent) was added followed by a 30 minute incubation at room temperature. The plate was read on a luminescence plate reader. The counts were log transformed and read off the standard curve. […]
Take `CNc1ccc(-c2nc3ccc(OCCOCCOCC(=O)N[C@H](C(=O)N4C[C@H](O)C[C@H]4C(=O)N[C@@H](C)c4ccc(-c5scnc5C)cc4)C(C)(C)C)cc3s2)cc1` [Exemplary Compound 1, (2S,4R)-1-[(2S)-3,3-dimethyl-2-[[2-[2-[2-[[2-[4-(methylamino)phenyl]-1,3-benzothiazol-6-yl]oxy]ethoxy]ethoxy]acetyl]amino]butanoyl]-4-hydroxy-N-[(1S)-1-[4-(4-methylthiazol-5-yl)phenyl]ethyl]pyrrolidine-2-carboxamide]: the remaining activity at 1 µM is below 35%. Regarding `CNc1ccc(-c2nc3ccc(OCCOCCOCCOCCOCC(=O)N[C@H](C(=O)N4C[C@H](O)C[C@H]4C(=O)N[C@@H](C)c4ccc(-c5scnc5C)cc4)C(C)(C)C)cc3s2)cc1` [Exemplary Compound 3, (2S,4R)-1-((S)-2-(tert-butyl)-17-((2-(4-(methylamino)phenyl)benzo[d]thiazol-6-yl)oxy)-4-oxo-6,9,12,15-tetraoxa-3-azaheptadecanoyl)-4-hydroxy-N-((S)-1-(4-(4-methylthiazol-5-yl)phenyl)ethyl)pyrrolidine-2-carboxamide], the remaining activity at 1 µM was in the range of 35 to 70%. Turning to `CNc1ccc(-c2nc3ccc(OCCOCCOCCOCCOCCOCC(=O)N[C@H](C(=O)N4C[C@H](O)C[C@H]4C(=O)N[C@@H](C)c4ccc(-c5scnc5C)cc4)C(C)(C)C)cc3s2)cc1` [Exemplary Compound 4, (2S,4R)-1-((S)-2-(tert-butyl)-20-((2-(4-(methylamino)phenyl)benzo[d]thiazol-6-yl)oxy)-4-oxo-6,9,12,15,18-pentaoxa-3-azaicosanoyl)-4-hydroxy-N-((S)-1-(4-(4-methylthiazol-5-yl)phenyl)ethyl)pyrrolidine-2-carboxamide], the remaining activity at 1 µM was below 35%. The value for `Cc1ncsc1-c1ccc([C@H](C)NC(=O)[C@@H]2C[C@@H](O)CN2C(=O)[C@@H](NC(=O)COCCOCCOc2ccc3c(c2)Sc2cc([N+](=O)[O-])ccc2N3)C(C)(C)C)cc1` [Exemplary Compound 8, (2S,4R)-1-[(2S)-3,3-dimethyl-2-[[2-[2-[2-[(7-nitro-10H-phenothiazin-3-yl)oxy]ethoxy]ethoxy]acetyl]amino]butanoyl]-4-hydroxy-N-[(1S)-1-[4-(4-methylthiazol-5-yl)phenyl]ethyl]pyrrolidine-2-carboxamide] was 70 to 120%; that for `Cc1ncsc1-c1ccc([C@H](C)NC(=O)[C@@H]2C[C@@H](O)CN2C(=O)[C@@H](NC(=O)COCCOCCOCCOCCOCCOc2ccc3c(c2)Sc2cc([N+](=O)[O-])ccc2N3)C(C)(C)C)cc1` [Exemplary Compound 11, (2S,4R)-1-((S)-2-(tert-butyl)-20-((7-nitro-10H-phenothiazin-3-yl)oxy)-4-oxo-6,9,12,15,18-pentaoxa-3-azaicosanoyl)-4-hydroxy-N-((S)-1-(4-(4-methylthiazol-5-yl)phenyl)ethyl)pyrrolidine-2-carboxamide] was above 120%. The value for `O=C1CCC(N2C(=O)c3ccc(OCCOCCOCCOCCOCCOc4ccc5c(c4)Sc4cc([N+](=O)[O-])ccc4N5)cc3C2=O)C(=O)N1` (centres unmarked) [Exemplary Compound 14, 2-(2,6-dioxopiperidin-3-yl)-5-((14-((7-nitro-10H-phenothiazin-3-yl)oxy)-3,6,9,12-tetraoxatetradecyl)oxy) isoindoline-1,3-dione] was 35 to 70%; that for `CN(CCCN1c2ccccc2Sc2ccccc21)CCOCCOCCOc1ccc2c(c1)C(=O)N(C1CCC(=O)NC1=O)C2=O` (centres unmarked) [Exemplary Compound 15, 5-(2-(2-(2-((3-(10H-phenothiazin-10-yl)propyl)(methyl)amino)ethoxy)ethoxy)ethoxy)-2-(2,6-dioxopiperidin-3-yl)isoindoline-1,3-dione] was 35 to 70%; that for `CN(CCCN1c2ccccc2Sc2ccccc21)CCOCCOCCOCCOc1ccc2c(c1)C(=O)N(C1CCC(=O)NC1=O)C2=O` (centres unmarked) [Exemplary Compound 16, 2-(2,6-dioxo-3-piperidyl)-5-[2-[2-[2-[2-[methyl(3-phenothiazin-10-ylpropyl)amino]ethoxy]ethoxy]ethoxy]ethoxy]isoindoline-1,3-dione] was 70 to 120%.
